Data on one compound can be found in ChEMBL document CHEMBL4680306, “The 3-D conformational shape of N-naphthyl-cyclopenta[d]pyrimidines affects their potency as microtubule targeting agents and their antitumor activity” (Bioorg Med Chem, 2021).

Molecules are shown by their SMILES. Active and inactive are the calls of the source. The calls are words filed in the database; no cut-off is given here.

The test system of test [1] is A10. As to the kind of experiment: Induction of microtubule depolymerisation in rat A-10 cell line at 40 uM measured after 18 hrs by indirect immunofluorescence method.
The subject of a further test is MDA-MB-435. The test is described as follows: Antiproliferative activity against human MDA-MB-435 cell line assessed as inhibition of cell proliferation at 10 uM measured after 48 hrs by SRB assay. Format: functional. (Sulforhodamine B stains cellular protein and so reports cell mass.)
For test [2], the system named is A10. The test is described as follows: Potency index, ratio of CA-4 IC50 to test compound IC50 for induction of microtubule depolymerisation in rat A-10 cell line measured after 18 hrs by indirect immunofluorescence method.

For orientation: inhibition means the percentage by which the read-out fell short of the control.

For `COc1ccc(Nc2nc(C)nc3c2CC(C)C3)cc1` (stereo not drawn), the outcome in the test on A10 [1] was inactive. For the same compound, the inhibition at 10 µM with MDA-MB-435 came to 7%. Besides, in the test with A10 [2], the Ratio IC50 was 3.
